Assay: HPLC assay for profiling solution reactivity and stability of purine inhibitors
Type: physicochemical
Settings: N7 versus N9 tautomer, on ice 6 h
Protocol: HPLC assay for profiling solution reactivity and stability of purine inhibitors—The following reagents were prepared and stored on ice prior to use. 0.1 M solution of caffeine in acetonitrile, 1.0 M solution of amino acid mimetic (butanethiol), tetramethylguanidine (TMG), 1 M HOAc in ACN and 10 mM solution of purine fragment in ACN mixture. 500 μL of fragment solution were transferred to a dram vial on ice. To the mixture, 5.5 μL of TMG and 5.5 μL of respective amino acid mimetic were added and solutions were stirred on ice for 6 h. To monitor reactivity, 50 μL aliquots were removed at indicated time points and quenched with 10 μL of a 1:1 mixture of caffeine and HOAc. Samples were injected (1 μL) and analyzed by reverse-phase HPLC on a Shimadzu 1100 Series spectrometer (Shimadzu Corporation, Kyoto, Japan) with UV detection at 254 nm. Reaction progress was evaluated by monitoring consumption of starting material (purine fragment) normalized to caffeine standard. Chromatographic separation was performed using a Phenomenex Kinetex C18 column (2.6 μm, 50×4.6 mm; Phenomenex, Torrance, Calif., United States of America). Mobile phases A and B were composed of H2O+0.1% HOAc and ACN+0.1% HOAc, respectively. […] All purine fragment peak AUCs used for calculations were normalized to caffeine standard AUCs at respective time points to account for run-to-run variations by HPLC. […]

reactivity for butanethiol	SMILES
essentially equivalent reactivity	O=S(=O)(c1ccc(F)cc1)n1cnc2c(Cl)nc(Cl)nc21 [Pi-14, 2,6-dichloro-9-((4-fluorophenyl)sulfonyl)-9H-purine]
essentially equivalent reactivity	O=S(=O)(c1ccc(F)cc1)n1cnc2nc(Cl)nc(Cl)c21 [Pi-13, 2,6-dichloro-7-((4-fluorophenyl)sulfonyl)-7H-purine]

Reference: patent US20220251085A1, “CYSTEINE BINDING COMPOSITIONS AND METHODS OF USE THEREOF” (University of Virginia Patent Foundation, priority 2019, published 2022)
